Data reported in the supplement of paper PMC4862054.

Tests used:
Experiment in all cases: normalised response (% of control), CellTiter-Glo; higher = more viable cells (100 = DMSO, 0 = benzethonium chloride kill control)
Settings in all cases: incubation time: 72 h
MDA-MB-468 = test system: MDA-MB-468
Summary of the method: (§1)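 Each value is the plate-normalised signal at one concentration of the series. Breast cancer cell lines (20 µl suspension) were incubated 72 h in 384-well plates with compound at 5 concentrations in 10-fold steps over a compound-specific 10,000-fold range. CellTox Green and then CellTiter-Glo were read, and each plate was scaled to 0.1 % DMSO (100) and a positive kill control (0).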

Hs578T = test system: Hs578T
Summary of the method: as §1

MDA-MB-453 = test system: MDA-MB-453
Summary of the method: as §1

CAL-120 = test system: CAL-120
Summary of the method: as §1

HCC1143 = test system: HCC1143
Summary of the method: as §1

MDA-MB-436 = test system: MDA-MB-436
Summary of the method: as §1

MFM-223 = test system: MFM-223
Summary of the method: as §1

HCC1937 = test system: HCC1937
Summary of the method: as §1

BT-474 = test system: BT-474
Summary of the method: as §1

CAL-85-1 = test system: CAL-85-1
Summary of the method: as §1

MDA-MB-231 = test system: MDA-MB-231
Summary of the method: as §1

SK-BR-3 = test system: SK-BR-3
Summary of the method: as §1

BT-549 = test system: BT-549
Summary of the method: as §1

HDQ-P1 = test system: HDQ-P1
Summary of the method: as §1

CAL-148 = test system: CAL-148
Summary of the method: as §1

MCF-10A = test system: MCF-10A
Summary of the method: as §1

HCC1599 = test system: HCC1599
Summary of the method: as §1

CAL-51 = test system: CAL-51
Summary of the method: as §1

DU-4475 = test system: DU-4475
Summary of the method: as §1

Compound	normalised response (MDA-MB-468) [%]	normalised response (Hs578T) [%]	normalised response (MDA-MB-453) [%]	normalised response (CAL-120) [%]	normalised response (HCC1143) [%]	normalised response (MDA-MB-436) [%]	normalised response (MFM-223) [%]	normalised response (HCC1937) [%]	normalised response (BT-474) [%]	normalised response (CAL-85-1) [%]	normalised response (MDA-MB-231) [%]	normalised response (SK-BR-3) [%]	normalised response (BT-549) [%]	normalised response (HDQ-P1) [%]	normalised response (CAL-148) [%]	normalised response (MCF-10A) [%]	normalised response (HCC1599) [%]	normalised response (CAL-51) [%]	normalised response (DU-4475) [%]
COc1cc2c(NC3CCN(C(C)C)CC3)nc(N3CCC(F)(F)CC3)nc2cc1OCCCN1CCCC1 [UNC0642] (1 nM)	95.9	99.3	105	94.2	95	89.2	91.2	94.5	92.3	93.2	96	93.1	97.9	92.7	87.2	102	88.9	103	97.5
COc1cc(O)c2c(c1)/C=C/C[C@H](O)[C@H](O)C(=O)/C=C\C[C@H](C)OC2=O [(5Z)-7-Oxozeaenol] (10 nM)	100	104	93	94.9	108	99	107	106	106	96.4	109	107	103	96.9	106	112	121	107	102
COc1cc(O)c2c(c1)/C=C/C[C@H](O)[C@H](O)C(=O)/C=C\C[C@H](C)OC2=O [(5Z)-7-Oxozeaenol] (1 nM)	98	99.9	106	99.8	106	98	108	98.7	97.9	95.2	103	105	109	105	104	109	91.8	93.9	96.6
COC(=O)c1ccc2c(c1)NC(=O)/C2=C(\Nc1ccc(N(C)C(=O)CN2CCN(C)CC2)cc1)c1ccccc1 [Nintedanib] (1 nM)	110	95.9	120	104	97.1	101	99.1	97.7	98	99.1	98.7	101	97.6	102	110	103	103	121	101
S=P(N1CC1)(N1CC1)N1CC1 [Thio-TEPA] (50 nM)	95.3	99.1	98	93	95.7	98.5	106	101	97	98.7	96.6	91.5	100	94.7	94.2	103	101	71.5	103
Oc1ccc2c(c1)CC[C@H](c1ccccc1)[C@@H]2c1ccc(OCCN2CCCC2)cc1 [Lasofoxifene] (1 nM)	105	103	112	95.1	100	101	107	101	102	96.6	104	110	93.2	96.3	112	104	97.3	106	105
COc1cc(OC2CCN(C)CC2)ccc1Nc1ncc2c(n1)n(C1CCCC1)c(=O)n2C [AZ 3146] (10 nM)	111	93	97.8	103	100	98.2	102	96.1	107	102	104	95.4	96.3	95.9	99.7	95.5	95.9	132	97
Cc1ccc(NC(=O)c2ccc(CN3CCN(C)CC3)cc2)cc1Nc1nc(-c2cccnc2)cs1 [Masitinib] (10 nM)	108	98.8	113	91.5	98.4	101	105	97.4	102	99.7	100	–	101	93.6	108	104	93.8	99.4	102
O=C(/C=C/c1cccc(S(=O)(=O)Nc2ccccc2)c1)NO [Belinostat] (10 nM)	105	94.3	97.1	96.9	99.2	91	88.5	94.8	98.2	93.8	98.5	68.9	101	88.5	85.7	96	96.5	80.2	97.2
O=P1(N(CCCl)CCCl)NCCCO1 (stereo not drawn) [Cyclophosphamide] (40 nM)	101	106	106	96.8	105	99.1	100	95.6	100	98.7	99.9	91	97.9	98.4	104	102	98.2	79.3	106
S=P(N1CC1)(N1CC1)N1CC1 [Thio-TEPA] (5 nM)	91.2	106	108	95.4	96.2	78.2	102	93.8	93.2	99.2	102	105	94.9	93.4	90.4	101	104	64.7	98.6
C=C1C[C@@H]2[C@H](CC[C@]3(C)C(=O)CC[C@@H]23)[C@@]2(C)C=CC(=O)C=C12 [Exemestane] (10 nM)	109	99.7	116	98	99.7	104	108	103	21	108	106	–	98	98.9	109	116	99.1	70.2	106
CCn1c(-c2nonc2N)nc2cnc(Oc3cccc(NC(=O)c4ccc(OCCN5CCOCC5)cc4)c3)cc21 (10 nM)	94.3	104	91.3	92.4	101	95	106	104	93.3	102	99.8	117	97.3	103	94.9	89	104	121	94.2
COC(=O)c1ccc2c(c1)NC(=O)/C2=C(\Nc1ccc(N(C)C(=O)CN2CCN(C)CC2)cc1)c1ccccc1 [Nintedanib] (10 nM)	102	104	115	100	97	104	103	97.3	96.9	95	91.2	115	100	104	105	107	133	125	103
CNC(=O)c1ccc(N2C(=S)N(c3ccc(C#N)c(C(F)(F)F)c3)C(=O)C23CCC3)cc1F [RD162] (10 nM)	105	95.3	104	95.5	105	93.7	102	97	103	101	98.2	94.4	93.8	96.3	107	105	99.3	102	102
COCC[n+]1c2c(n(Cc3cnccn3)c1C)C(=O)c1ccccc1C2=O [YM155] (10 nM)	11.8	95.2	66.2	7.43	56.4	26.6	75.3	55.7	25.6	31.8	37.6	69.8	91.5	79.8	85	88.1	43.3	77.8	101
CCOC(=O)CCNc1cc(N2CCc3ccccc3CC2)nc(-c2ccccn2)n1 [GSK-J4] (100 nM)	95.5	105	84.8	110	97.6	92.6	103	95.2	95.7	100	92.8	68.8	93.8	93.1	101	97.3	95.5	97.8	95.3
Cc1[nH]c2ccccc2c1CCNCc1ccc(/C=C/C(=O)NO)cc1 [Panobinostat] (1 nM)	103	98.7	92.8	101	104	107	100	96.5	103	104	102	–	101	102	101	99.9	100	118	99.1
Cc1cc(Nc2cc(CN3CCOCC3)c3nc(C)c(Cc4ccc(Cl)cc4F)n3n2)n[nH]1 [Gandotinib] (10 nM)	101	99.5	99.3	98.2	102	104	105	94.2	106	101	102	–	100	106	110	108	118	92	104
COCC1(CO)C(=O)C2CCN1CC2 (stereo not drawn) [Prima-1 Met] (10 nM)	102	103	111	92.4	103	101	103	99	103	103	103	–	93.7	95.1	102	107	92.7	124	109
O=C(Nc1ccncc1)C(=O)c1cn(Cc2ccc(Cl)cc2)c2ccccc12 [Indibulin] (10 nM)	102	104	95	92.6	100	99.2	107	98.2	112	99.9	104	–	93.5	94.1	109	102	93.4	86.5	105
